# Where two headings read alike, the source gives them in different places.
# What was measured:
# C. glabrata (ATCC 2001) [1] = experiment: Secondary C. glabrata inhibition in glycerol media (OD600); type: cell-based, Candida glabrata; details: for IC50: read-out: Growth Inhibition Activity, IC50 (μM), C. glabrata (n = 3) On glycerol
# Text: (§1) Cell Lines. • Candida albicans CaCi-2; a drug-resistant clinical isolate was provided by the Whitehead Institute (Redding et al., Clin. Infect. Dis. 1994, 18(2):240-2). This strain was used for the primary assay. • Candida albicans CaCi-17; a strongly drug-resistant clinical isolate was provided by the Whitehead Institute (Redding et al., Clin. Infect. Dis. 1994, 18(2):240-2). This strain was used for the primary assay • Saccharyomyces cerevisiae W303-1a (ATCC 208352); a well-characterized Saccharomyces strain used for determination of glycolytic vs. respiratory metabolism, as well as in the mitochondrial disruption assay. • Candida glabrata (ATCC 2001); used for determination of glycolytic vs. respiratory metabolism. • NIH-3T3 mammalian fibroblasts (ATCC; CRL no.1658); used for mammalian toxicity assays. […]
# (§2) Saccharomyces, while not a major human pathogen, is a useful lab model with well-developed genetic tools available. Candida glabrata is an increasingly prominent clinical problem for immune-compromised patients but with fewer genetic tools available with which to study it. These organisms can utilize alternative metabolic pathways to support growth and survival depending on the carbon source. By comparing the concentration-dependent inhibition of yeast growth in glycerol relative to glucose media, a quantitative assessment of a compound's ability to disrupt respiration can be determined. […].
# (§3) Clear, flat bottom, black 384-well plates (Corning Catalog no. 3712BC; Lot no. 35808016); Amphotericin B (Sigma Catalog no. A2411) 15 mM stock solution in DMSO; Pen/Strep (Gibco Catalog no. 10378-016; Lot no21040170) 100× in PBS.
# (§4) Synthetic defined growth medium. Complete Supplement Mixture; (Sunrise Science, Catalog No. 1001-100); Yeast Nitrogen Base without ammonium sulfate (MP Biomedicals, Catalog No. 4027-012); Glycerol (Sigma Catalog No. G-9012). • Prepare medium by dissolving 0.79 g Complete Supplement Mixture and 1.7 g Yeast Nitrogen Base in 800 mL water. • Add 20 mL of glycerol. Adjust final volume to 1000 mL. Filter sterilize.
# (§5) Fungal Inoculum. Test Strains: C. glabrata (ATCC 2001) and Saccharomyces cerevisiae W303. • Inoculate 100 μL of yeast from cryopreserved stock into 250 mL shaker flask containing 20 mL growth medium. Shake at 30° C. overnight (about 16 hours). • Read OD 600 of 1 mL of fungal culture in a cuvette using a standard optical density reader (Eppendorf BioPhotometer Plus), with growth medium as a background blank. • Dilute to desired volume of fungal inoculum to produce an OD600 reading of 0.005 (S. cerevisiae) or 0.004 (C. glabrata).
# (§6) Procedures • Use a Thermo Combi nL to dispense 20 μL/well of assay media into all wells. • Add 2 μL of Amphotericin B to control wells. • Pin 100 nL of test compound from compound plates into assay plates using a CyBi-Well pin tool. • Dispense 20 μL/well of culture into the assay media in all wells. • Incubate the plates in a humidified (90% humidity) Liconic incubator at 37° C. without agitation for 48 hours. • Shake plates briefly. • Read OD600 of wells on a standard plate reader as measure of relative fungal growth. Envision (Perkin Elmer) plate reader settings: Ex Photometric 600, Top read. Secondary Glucose Assay Protocol (AID 623971, 623967, 624013, 624025) Materials and Reagents
# C. glabrata (ATCC 2001) [2] = experiment: Secondary C. glabrata inhibition in glucose media (OD600); type: cell-based, Candida glabrata; details: for IC50: read-out: Growth Inhibition Activity, IC50 (μM), C. glabrata (n = 3) On glucose
# Text: as §1, §2, §6
# (§7) Clear, flat bottom, black 384-well plates (Corning, Catalog No. 3712BC; Lot No. 35808016); Amphotericin B (Sigma, Catalog no. A2411) 15 mM stock solution in DMSO; Pen/Strep (Gibco, Catalog No. 10378-016; Lot no21040170) 100× in PBS.
# (§8) Synthetic defined growth medium. Complete Supplement Mixture; (Sunrise Science, Catalog No. 1001-100); Yeast Nitrogen Base without ammonium sulfate (MP Biomedicals, Catalog No. 4027-012); Glucose (Sigma, Catalog No. G7021). • Prepare medium by dissolving 0.79 g of Complete Supplement Mixture and 1.7 g of Yeast Nitrogen Base in 800 mL of water. • Add 20 g of glucose. Adjust final volume to 1000 mL. Filter sterilize.
# as §5, with “Inoculate […] of yeast” for “Inoculate 100 μL of yeast”, “stock into a 250 mL” for “stock into 250 mL”, “20 mL of growth medium.” for “20 mL growth medium.”
# as §6, with “read. 4.5.” for “read.”, “Mitochondrial Disruption” for “Glucose”, “Assay” for “Assay Protocol”, “No. 624062” for “623971, 623967, 624013, 624025) Materials”, “624068)” for “Reagents”
# [3] = tested on: Saccharomyces cerevisiae W303; experiment: Secondary S. cerevisiae inhibition in glycerol media (OD600); type: cell-based; details: for IC50: read-out: Growth Inhibition Activity, IC50 (μM), S. cerevisiae (n = 3) On glycerol
# Text: as §1, §2, §3, §4, §5, §6
# [4] = tested on: Saccharomyces cerevisiae W303; experiment: Secondary S. cerevisiae inhibition in glucose media (OD600); type: cell-based; details: for IC50: read-out: Growth Inhibition Activity, IC50 (μM), S. cerevisiae (n = 3) On glucose
# Text: as §1, §2, §6, §7, §8
# as §5, with “Inoculate […] of yeast” for “Inoculate 100 μL of yeast”, “stock into a 250 mL” for “stock into 250 mL”, “20 mL of growth medium.” for “20 mL growth medium.”
# as §6, with “read. 4.5.” for “read.”, “Mitochondrial Disruption” for “Glucose”, “Assay” for “Assay Protocol”, “No. 624062” for “623971, 623967, 624013, 624025) Materials”, “624068)” for “Reagents”
# Candida albicans CaCi-2 = experiment: Primary assay: C. albicans CaCi-2 growth inhibition (Alamar Blue); type: cell-based; on Growth Inhibition Activity, IC50 (μM), C. albicans CaCi-2, values marked ‡: less than 0.10 µM in AID 623899
# Candida albicans CaCi-17 = experiment: Primary assay: C. albicans CaCi-17 growth inhibition (Alamar Blue); type: cell-based; details: Candida albicans, read-out: Growth Inhibition Activity, IC50 (μM), C. albicans (n = 3) CaCi-17
# [5] = tested on: NIH-3T3 mammalian fibroblasts; experiment: Counterscreen mammalian cell toxicity assay (Alamar Blue); type: cell-based, murine; details: for Growth Inhibition Activity, IC50 (μM), 3T3 Fibroblasts (n = 1): Table 4, 48 hours, tested up to 26 μM
# Description: Quiescent murine fibroblasts were subjected to incubation with compounds of interest for 48 hours. Subsequent cell viability was determined via measuring Alamar Blue fluorescence.
# Procedures • After overnight culture, pin compounds into wells at 100 nL/well using the CyBio CyBi-Well pinning instrument. • Return the plates to the tissue culture incubator and incubate the culture for an additional 48 hours at 37° C. under 5% CO2. • At the completion of this incubation, add Alamar Blue solution diluted 1:40 in PBS to each well (10 μL/well) to achieve a final dilution of 1:200. • Incubate the plates for an additional 2-3 hours at 37° C. under 5% CO2. • Read the Relative Fluorescence Intensity (RFU) of wells on a standard plate reader as a measure of relative cell growth. […] 4.4.
# [6] = Solubility in PBS pH 7.4 with 1% DMSO; details: for solubility at 24 h: phosphate buffered saline with 1% DMSO, pH 7.4, aqueous buffer, kinetic from dmso stock
# Description: Solubility was determined in phosphate buffered saline (PBS) pH 7.4 with 1% DMSO. Each compound was prepared in duplicate at 100 μM in both 100% DMSO and PBS with 1% DMSO. Compounds were allowed to equilibrate at room temperature with a 250 rpm orbital shake for 24 hours. After equilibration, samples were analyzed by UPLC-MS (Waters, Milford, Mass.) with compounds detected by SIR detection on a single quadrupole mass spectrometer. The DMSO samples were used to create a two-point calibration curve to which the response in PBS was fit.
# [7] = Table 8, n = 3, glycerol media, 48 hours, tested up to 3 μM
# [8] = Table 8, n = 3, glucose media, 48 hours, tested up to 3 μM
# [9] = Nakaseomyces glabratus, ATCC2001, 48 h
# [10] = Saccharomyces cerevisiae, W303, 48 h
# [11] = Candida albicans, CACI2; read-out: Growth Inhibition Activity, IC50 (μM), C. albicans CaCi-2, values marked ‡
# [12] = CACI17, Table 4, n = 3, 48 hours, tested up to 26 μM
# [13] = Nakaseomyces glabratus, ATCC2001, Table 8, n = 3, glycerol media, 48 hours, tested up to 3 μM
# [14] = Nakaseomyces glabratus, ATCC2001, Table 8, n = 3, glucose media, 48 hours, tested up to 3 μM
# [15] = Saccharomyces cerevisiae, W303, Table 8, n = 3, glycerol media, 48 hours, tested up to 3 μM
# [16] = Saccharomyces cerevisiae, W303, Table 8, n = 3, glucose media, 48 hours, tested up to 3 μM
smiles,measurement,setting,value
"C[C@@H]1[C@H](O)[C@@H](C)/C=C/C=C/C=C/C=C/C=C/C=C/C=C/[C@H](O[C@@H]2O[C@H](C)[C@@H](O)[C@H](N)[C@@H]2O)C[C@@H]2O[C@](O)(C[C@@H](O)C[C@@H](O)[C@H](O)CC[C@@H](O)C[C@@H](O)CC(=O)O[C@H]1C)C[C@H](O)[C@H]2C(=O)O [Amphotericin B, reference compound]",IC50,C. glabrata (ATCC 2001) [1]; [7],0.62 µM
same,Growth inhibition of C. glabrata on glycerol IC50,"C. glabrata (ATCC 2001) [1]; figure legends and Tables 9, 10, 13, AID 623965",significantly inhibited
same,IC50,C. glabrata (ATCC 2001) [2]; [8],1.2 µM
same,Growth inhibition of C. glabrata on glucose IC50,"C. glabrata (ATCC 2001) [2]; figure legends and Tables 9, 10, 13, AID 623967",significantly inhibited
same,IC50,[3]; [7],0.26 µM
same,Growth inhibition of S. cerevisiae on glycerol IC50,"[3]; figure legends and Tables 9, 10, 13, AID 623969",significantly inhibited
same,IC50,[4]; [8],0.38 µM
same,Growth inhibition of S. cerevisiae on glucose IC50,"[4]; figure legends and Tables 9, 10, 13, AID 623971",significantly inhibited
CCOC(=O)N1C(=O)C2(CCCCC2)N(c2ccccc2)C1=S [compound 56604821],IC50,"Candida albicans CaCi-2; Candida albicans, CACI2, 48 h, read-out: Growth Inhibition Activity, IC50 (μM), C. albicans (n = 3) CaCi-2",0.2 µM
same,IC50,"Candida albicans CaCi-17; CACI17, 48 h",4.2 µM
same,"Growth Inhibition Activity, IC50 (μM), 3T3 Fibroblasts (n = 1)",[5],Inactive
same,IC50,C. glabrata (ATCC 2001) [1]; [9],0.026 µM
same,IC50,C. glabrata (ATCC 2001) [2]; [9],> 3 µM
same,IC50,[3]; [10],0.015 µM
same,IC50,[4]; [10],> 3 µM
same,solubility at 24 h,[6],1.6 µM
CCOC(=O)N1C(=O)C2(CCCCC2)N(c2ccc(C#N)cc2)C1=S [compound 56604847],IC50,Candida albicans CaCi-2; [11],0.08 µM
same,IC50,Candida albicans CaCi-17; [12],1.8 µM
same,"Growth Inhibition Activity, IC50 (μM), 3T3 Fibroblasts (n = 1)",[5],Inactive
same,IC50,C. glabrata (ATCC 2001) [1]; [13],0.033 µM
same,IC50,C. glabrata (ATCC 2001) [2]; [14],> 3 µM
same,IC50,[3]; [15],0.004 µM
same,IC50,[4]; [16],> 3 µM
same,solubility at 24 h,[6],< 1 µM
CCOC(=O)N1C(=O)C2(CCCCC2)N(c2ccc(F)cc2)C1=S [compound 56604860],IC50,Candida albicans CaCi-2; [11],0.04 µM
same,IC50,Candida albicans CaCi-17; [12],1 µM
same,"Growth Inhibition Activity, IC50 (μM), 3T3 Fibroblasts (n = 1)",[5],Inactive
same,IC50,C. glabrata (ATCC 2001) [1]; [13],0.011 µM
same,IC50,C. glabrata (ATCC 2001) [2]; [14],> 3 µM
same,IC50,[3]; [15],0.004 µM
same,IC50,[4]; [16],> 3 µM
same,PBS Solubility,"[6]; Table 4, PBS pH 7.4 with 1% DMSO, 24 hours, room temperature",1.1 µM
CCOC(=O)N1C(=O)C2(CCCCC2)N(c2ccc(Cl)cc2)C1=S [compound 56604865],IC50,"Candida albicans CaCi-2; Candida albicans, CACI2, read-out: Growth Inhibition Activity, IC50 (μM), C. albicans CaCi-2, values marked ‡",0.06 µM
same,IC50,"Candida albicans CaCi-17; CACI17, 48 h",1.4 µM
same,IC50,"[5]; Mus musculus, NIH3T3, 48 h, read-out: Growth Inhibition Activity, IC50 (μM), 3T3 Fibroblasts (n = 1)",22.3 µM
same,IC50,C. glabrata (ATCC 2001) [1]; [9],0.022 µM
same,IC50,C. glabrata (ATCC 2001) [2]; [9],> 3 µM
same,IC50,[3]; [10],0.006 µM
same,IC50,[4]; [10],> 3 µM
same,solubility at 24 h,[6],< 1 µM

# Reference: patent US9944607B2, “Thiohydantoin derivatives and uses thereof” (Whitehead Institute for Biomedical Research, priority 2012, dated 2018)
